The values below come from patent publication US7045653B2, “Pharmaceuticals” (Pfizer, Inc., priority 2003, dated 2006).

Test [1] concerns the target T1, NEP (EC.3.4.24.11) from human kidney (Homo sapiens, UniProt P08473).
T1 construct: determined using NEP (EC.3.4.24.11) from human kidney; from tissue; host or cells: human kidney
In words: IC50 against NEP. Format: biochemical. How it is done:
IC50 values of the compounds of the invention against NEP and ACE were determined using methods described in published patent application EP1097719-A1, paragraphs [0368] to [0376]. The IC50 values presented below were determined using NEP (EC.3.4.24.11) from human kidney.

Test [2] concerns patients with essential hypertension. The conditions noted are these: 24 black patients with essential hypertension; cited from earlier work.
For test [3], the system named is hypertensive patients. Particulars: added to the ACE inhibitor lisinopril; 37 hypertensive patients; cited from earlier work.
Test [4] deals with hypertensive rats. The conditions noted are these: cited from earlier work.

T1 sequence (P08473 whole entry): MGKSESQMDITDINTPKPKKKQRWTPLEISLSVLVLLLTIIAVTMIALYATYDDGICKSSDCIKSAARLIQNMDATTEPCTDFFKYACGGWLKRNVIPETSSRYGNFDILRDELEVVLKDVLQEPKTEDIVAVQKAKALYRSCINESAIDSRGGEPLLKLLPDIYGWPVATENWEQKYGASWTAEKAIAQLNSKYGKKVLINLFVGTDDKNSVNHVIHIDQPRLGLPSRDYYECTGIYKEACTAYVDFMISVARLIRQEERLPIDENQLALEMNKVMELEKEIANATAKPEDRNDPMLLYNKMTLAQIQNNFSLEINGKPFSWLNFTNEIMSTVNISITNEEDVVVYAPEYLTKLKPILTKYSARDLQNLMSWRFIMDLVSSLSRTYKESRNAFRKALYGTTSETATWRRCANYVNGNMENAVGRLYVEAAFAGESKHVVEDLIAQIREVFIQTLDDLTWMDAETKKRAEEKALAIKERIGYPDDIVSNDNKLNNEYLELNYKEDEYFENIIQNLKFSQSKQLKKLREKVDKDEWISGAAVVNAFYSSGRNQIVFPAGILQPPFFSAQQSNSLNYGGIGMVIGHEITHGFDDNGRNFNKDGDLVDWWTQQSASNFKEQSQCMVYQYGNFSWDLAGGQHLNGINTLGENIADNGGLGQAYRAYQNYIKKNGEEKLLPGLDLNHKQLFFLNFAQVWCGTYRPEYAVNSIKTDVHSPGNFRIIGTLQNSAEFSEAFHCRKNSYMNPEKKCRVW

In general, IC50 refers to the midpoint of a concentration-inhibition curve. Take `COCC[C@H](CC1(C(=O)N[C@@H](COCc2ccc(Cl)cc2)CC(=O)O)CCCC1)C(=O)O` [Example 16, (2S)-2-[(1-{[((1R)-2-Carboxy-1-{[(4-chlorobenzyl)oxy]methyl}ethyl)amino]-carbonyl}cyclopentyl)methyl]-4-methoxybutanoic Acid]: the midpoint of inhibition in test [1], the IC50, lay at 8.2 nM.
Take `CCC[C@H](CC1(C(=O)N[C@@H](CCOc2ccc(Cl)cc2)CC(=O)O)CCCC1)C(=O)O` [Example 41, (3S)-3-[({1-[(2R)-2-Carboxypentyl]cyclopentyl}carbonyl)amino]-5-(4-chlorophenoxy)pentanoic Acid]: the IC50 in test [1] came to 6.3 nM.
Still for that read-out and setting: the value for `COCC[C@H](CC1(C(=O)N[C@@H](CCOc2ccc(Cl)cc2)CC(=O)O)CCCC1)C(=O)O` [Example 48, (3S)-3-[({1-[(2S)-2-Carboxy-4-methoxybutyl]cyclopentyl}carbonyl)amino]-5-(4-chlorophenoxy)pentanoic Acid] was 2.4 nM; that for `COCC[C@H](CC1(C(=O)N[C@@H](CCCc2ccc(Cl)cc2)CC(=O)O)CCCC1)C(=O)O` [Example 53, (3S)-3-[({1-[(2S)-2-carboxy-4-methoxybutyl]cyclopentyl}carbonyl)amino]-6-(4-chlorophenyl)hexanoic Acid] was 0.7 nM.
On the same count and under the same terms, under `COCC[C@H](CC1(C(=O)N[C@@H](CCCc2ccc(OC)cc2)CC(=O)O)CCCC1)C(=O)O` [Example 54, (3S)-3-[({1-[(2S)-2-carboxy-4-methoxybutyl]cyclopentyl}carbonyl)amino]-6-(4-methoxyphenyl)hexanoic Acid] stands 4.7 nM.
As for `CC1(C)OCC(COC(=O)C(Cc2ccccc2)N[C@@H](Cc2ccccc2)C(=O)NCCC(=O)O)O1` (some centres unmarked) [SCH34826], the supine blood pressure result in test [2] was “significantly lowered supine blood pressure”.
For the compound `COCCOC[C@H](CC1(C(=O)N[C@H]2CC[C@@H](C(=O)O)CC2)CCCC1)C(=O)Oc1ccc2c(c1)CCC2` [candoxatril], the “supine and erect blood pressure” value in test [3] was “marked reduction in both supine and erect blood pressure”.
With `COCCOC[C@H](CC1(C(=O)N[C@H]2CC[C@@H](C(=O)O)CC2)CCCC1)C(=O)O` [candoxatrilat], the systolic blood pressure result in test [4] is reported as “lowers systolic blood pressure”.
